Measured values reported in US9102674B2, “Substituted naphthyridine and quinoline compounds as MAO inhibitors” (DART NEUROSCIENCE (CAYMAN) LTD., priority 2013, dated 2015).

Target: T1, Human recombinant MAO-B (Homo sapiens, UniProt P27338)
T1 construct: host or cells: insect cells
T1 sequence (P27338 1-520): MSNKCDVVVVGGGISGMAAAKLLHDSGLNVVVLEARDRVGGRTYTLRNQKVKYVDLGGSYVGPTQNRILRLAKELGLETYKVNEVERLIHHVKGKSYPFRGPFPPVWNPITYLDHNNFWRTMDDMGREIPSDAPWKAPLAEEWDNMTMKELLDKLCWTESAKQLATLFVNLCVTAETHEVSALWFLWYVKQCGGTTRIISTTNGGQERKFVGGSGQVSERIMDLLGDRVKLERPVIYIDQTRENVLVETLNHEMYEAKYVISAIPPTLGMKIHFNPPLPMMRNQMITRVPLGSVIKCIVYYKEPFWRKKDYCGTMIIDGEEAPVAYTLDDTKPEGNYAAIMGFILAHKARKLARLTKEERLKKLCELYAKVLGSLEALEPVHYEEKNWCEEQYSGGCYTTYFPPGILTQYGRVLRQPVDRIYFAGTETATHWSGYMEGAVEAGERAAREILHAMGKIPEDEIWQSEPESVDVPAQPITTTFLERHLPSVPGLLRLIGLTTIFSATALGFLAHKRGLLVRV
Experiment: MAO-B enzymatic assay (fluorometric, kynuramine)
Assay type: biochemical
Conditions: human recombinant MAO-B expressed in insect cells; kynuramine substrate; values given as bins; read-out: MAO-B (pEC50) (converted)
Method: The MAO enzymatic assay was performed according to the fluorometric method described by Matsumoto and colleagues (Matsumoto et al., Clin. Biochem. 1985, 18, 126-129) with the following modifications. Human recombinant MAO-A and MAO-B expressed in insect cells were used. For both assays, test compound and/or vehicle were preincubated with purified enzyme in phosphate buffer pH 7.4 for 15 minutes at 37° C. The reaction was initiated by addition of […] kynuramine. Following a 60 minute incubation period, the reaction was terminated by the addition of 6 N NaOH. The amount of 4-hydroxyquinoline that formed was determined by spectrofluorimetrically at 325 nm/465 nm.
Results were converted to percent inhibition, and the EC50 (M) for each reaction was determined using the XLfit program from IDBS (ID Business Solutions Ltd., 2 Occam Court, Surrey Research Park, Guildford, Surrey, GU2 7QB UK). The EC50 represents the concentration of a compound where 50% of its maximal effect is observed. The pEC50 is defined as the negative logarithm of the EC50; a higher pEC50 value therefore corresponds to higher potency in the assay.
Representative compounds of the invention were evaluated in the MAO-B enzymatic assay. Typically, the compounds of the invention show MAO-B inhibitory properties at a concentration of 0.1 to 10 μM, typically at 5-100%.
As depicted in the following Table, these inhibitory properties were mirrored by pEC50 values ranging from 5 (meaning 10^−5 M or 10 μM) to greater than 7 (meaning less than 10^−7 M or 0.1 μM).

Row | SMILES | EC50 [nM]
1 | CC(C)(O)c1cnc2cc(OCc3ccc(F)c(Cl)c3)cnc2c1 [Example 78, 2-{7-[(3-Chloro-4-fluorophenyl)methoxy]-1,5-naphthyridin-3-yl}propan-2-ol] | < 100
2 | CCOC(=O)c1cc2ccc(OCc3cccc(Cl)c3)cc2nc1C [Example 20, Ethyl 7-((3-chlorobenzyl)oxy)-2-methylquinoline-3-carboxylate] | < 100
3 | NCc1cnc2cc(OCc3cccc(Cl)c3)ccc2c1 [Example 50, (7-((3-Chlorobenzyl)oxy)quinolin-3-yl)methanamine] | < 100
4 | OCCc1cnc2cc(OCc3cccc(Cl)c3)ccc2c1 [Example 56, 2-(7-((3-Chlorobenzyl)oxy)quinolin-3-yl)ethanol] | < 100
5 | CC(O)c1cnc2cc(OCc3ccc(F)cc3)ccc2c1 (stereo not shown) [Example 43, 1-(7-((4-Fluorobenzyl)oxy)quinolin-3-yl)ethanol] | < 100
6 | NC(=O)c1cnc2cc(OCc3ccc(F)c(F)c3)cnc2c1 [Example 70, 7-((3,4-Difluorobenzyl)oxy)-1,5-naphthyridine-3-carboxamide] | < 100
7 | CCOC(=O)c1cnc2cc(OCc3ccc(F)cc3)ccc2c1 [Example 2, Ethyl 7-[(4-fluorophenyl)methoxy]quinoline-3-carboxylate] | < 100
8 | COC(=O)c1cnc2cc(OCc3cccc(Cl)c3)ccc2c1 [Example 26, Methyl 7-((3-chlorobenzyl)oxy)quinoline-3-carboxylate] | < 100
9 | CCOC(=O)c1cnc2cc(OCc3ccc(F)c(F)c3)ccc2c1 [Example 14, Ethyl 7-((3,4-difluorobenzyl)oxy)quinoline-3-carboxylate] | < 100
10 | CCOC(=O)c1cc2ccc(OCc3ccc(F)cc3)cc2nc1C [Example 22, Ethyl 7-((4-fluorobenzyl)oxy)-2-methylquinoline-3-carboxylate] | < 100
11 | CC(C)(O)c1cnc2cc(OCc3ccc(F)cc3)ccc2c1 [Example 27, 2-(7-((4-Fluorobenzyl)oxy)quinolin-3-yl)propan-2-ol] | < 100
12 | CCOC(=O)c1cnc2cc(OCc3cccc(C)c3)ccc2c1 [Example 7, Ethyl 7-((3-methylbenzyl)oxy)quinoline-3-carboxylate] | < 100
13 | NC(=O)c1cnc2cc(OCc3ccc(F)cc3)cnc2c1 [Example 68, 7-((4-Fluorobenzyl)oxy)-1,5-naphthyridine-3-carboxamide] | < 100
14 | COC(=O)Cc1cnc2cc(OCc3cccc(Cl)c3)ccc2c1 [Example 54, Methyl 2-(7-((3-chlorobenzyl)oxy)quinolin-3-yl)acetate] | < 100
15 | NC(=O)c1cnc2cc(OCc3cccc(Cl)c3)cnc2c1 [Example 69, 7-((3-Chlorobenzyl)oxy)-1,5-naphthyridine-3-carboxamide] | < 100
16 | CN(C)CCNC(=O)c1cnc2cc(OCc3cccc(Cl)c3)ccc2c1 [Example 49, 7-((3-Chlorobenzyl)oxy)-N-(2-(dimethylamino)ethyl)quinoline-3-carboxamide] | 1000 to 10000
17 | CNC(=O)c1cnc2cc(OCc3cccc(Cl)c3)ccc2c1 [Example 46, 7-((3-Chlorobenzyl)oxy)-N-methylquinoline-3-carboxamide] | < 100
18 | C[C@H](O)c1cnc2cc(OCc3ccc(F)cc3)ccc2c1 [Example 45, (S)-1-(7-((4-Fluorobenzyl)oxy)quinolin-3-yl)ethanol] | < 100
19 | CCOC(=O)c1cnc2cc(OCc3ccc(OC)cc3)ccc2c1 [Example 10, Ethyl 7-((4-methoxybenzyl)oxy)quinoline-3-carboxylate] | 100 to 1000
